# Laboratory results reported in patent US20090209497A1, “METHOD OF TREATING LYMPHANGIOLEIOMYOMATOSIS (LAM)” (priority 2005, published 2009).
# Assay: Doxycycline therapy of a patient with LAM: clinical improvement (FEV1, O2 saturation, 6-min walk test)
# Format: in vivo, human
# Details: person with LAM, doxycycline 20 mg/day escalated up to 100 mg/day
# Description: FIGS. 1A-1B show successful treatment of LAM with doxycycline: monitoring therapeutic efficacy and measuring clinical improvement. […] Data points represent single measurements taken prior to or during doxycycline therapy. A person was diagnosed with LAM in 1975 after a partial nephrectomy for angiomyolipoma. Although stable for many years, their condition had deteriorated with an FEV1 as low as 0.48 liters (21 percent of predicted), and they were placed on the lung transplant list. […] Based on these elevated MMP levels, doxycycline was initiated at an initial dose of 20 mg/day. Dose escalation (up to 100 mg/day) was determined by monthly urinary MMP profiling (FIG. 1A) and how well the drug was tolerated. […] Telegraphic speech, which was present, resolved.
smiles,measurement,setting,value
C[C@H]1c2cccc(O)c2C(=O)C2=C(O)[C@]3(O)C(=O)C(C(N)=O)=C(O)[C@@H](N(C)C)[C@@H]3[C@@H](O)[C@@H]21 [doxycycline],"FEV1, percent of predicted",before treatment 21 percent of predicted,35% of predicted
same,FEV1 (lung capacity),before treatment as low as 0.48 liters,0.91 L
